Data taken from patent publication US8986689B2, “Compositions and methods for brain delivery of analgesic peptides” (National Research Council of Canada, priority 2010, dated 2015).
Non-standard residues stand in square brackets, D forms with d. No end group written: not given here.

Key:
[1] = test system: male CD-1 mice; assay: Tail flick assay (acute pain); type: in vivo, mouse; details: for Analgesic effect after intra-cerebroventricular injection: 15 min and 30 min after injection
[2] = test system: male Wistar rats; assay: Paw flick assay (Hargreaves method, CFA chronic inflammatory pain); type: in vivo, rat; details: for Analgesic effect after intravenous injection: tail vein, three injections at 0, 1 and 2 h, Dalargin-cys 0.34 mg/kg, FC5 and EG2-Dalargin 7 mg/kg
Method: (§1) Chronic inflammatory pain was induced in 4-6 week old male Wistar rats, by a intra-plantar (i.pl.) injection (100 μl with a 30-gauge needle) of complete Freund's adjuvant in sterile water in a ratio of 1:1 in the right hind paw under brief isoflurane anesthesia (3%). Three days after CFA injection the putative antinociceptive effect of different compounds was quantified by measuring latencies of withdrawal of both hind limb paws (ipsilateral and contralateral to CFA injection) in response to radiant heat using digitalized plantar Analgesia Meter for paw stimulation (IITC Model #336TG Life Science, Inc.). A rapid paw withdrawal on the side of CFA injection (compared to the contralateral non-injected paw) was indicative of inflammatory pain. During the training period (before experiments), the light-intensity lamp was adjusted to elicit baseline paw withdrawal latencies between 17 to 20 s (in rats). […] Results were analyzed as temporal courses of paw withdrawal latency (sec) versus time (min or hrs) and expressed as % of maximum possible effect (% MPE) as described in Example 5. A subcutaneous injection of morphine 10 mg/kg served as a positive control.
For intra-cerebroventricular injections in rats, a longitudinal incision was made in the scalp to identify the bregma; then animals received a unilateral 5 μl intra-cerebroventricular injection of either FC5-Dalargin or Dalargin alone approximately 0.8 mm anterioposterior (AP) level of bregma, 1.5 mm with respect to the midline and 3.5 mm ventral from the skull surface. Injections were made using a Hamilton syringe equipped with a 25-gauge needle. Injection depth was controlled by a plug on the needle to prevent more than 3.5 mm penetration beyond the skull surface.
In contrast, FC5-Dalargin induced cumulative analgesia after each i.v. dosing, reaching 100% MPE 45 min-1 hour after the third injection and gradually ‘washing-out’ over a subsequent three hours (FIG. 12, closed triangles), similar to what was observed after intra-cerebroventricular injections of Dalargin-cys and FC5-Dalargin (FIGS. 10 and 11). If Fc5-Dalargin injection was given 4th time at 3 h (FIG. 12, open polygons), the ‘wash-out’ (i.e., disappearance of analgesic effect) was somewhat extended. […] When Dalargin is functionalized with the blood-brain barrier ‘carrier’ single domain antibody, FC5, Dalargin becomes efficacious in inducing analgesia in chronic pain because FC5 enables its delivery across the blood brain barrier to the sites of its pharmacological action, central opioid receptors.
as §1, with “5-7 weeks” for “4-6 week”, “5.” for “5. A subcutaneous injection of morphine 10 mg/kg served as a positive control.”
Rats received 5 μl intra-cerebroventricular injections of NPY (1 μg) as described in Example 6.
NPY was then injected intravenously in the tail vein in two injections, each containing 2.02 mg/kg of NPY, 1 h apart from each other as described in Example 6. […]

[3] = biological target: opioid receptors (Rattus norvegicus, UniProt P33535); assay: Opioid receptor binding competition assay against 3H-DAMGO in isolated rat brain membranes; details: 30 nM 3H-DAMGO, capillary-depleted rat brain membranes
opioid receptors, sequence (P33535 whole entry): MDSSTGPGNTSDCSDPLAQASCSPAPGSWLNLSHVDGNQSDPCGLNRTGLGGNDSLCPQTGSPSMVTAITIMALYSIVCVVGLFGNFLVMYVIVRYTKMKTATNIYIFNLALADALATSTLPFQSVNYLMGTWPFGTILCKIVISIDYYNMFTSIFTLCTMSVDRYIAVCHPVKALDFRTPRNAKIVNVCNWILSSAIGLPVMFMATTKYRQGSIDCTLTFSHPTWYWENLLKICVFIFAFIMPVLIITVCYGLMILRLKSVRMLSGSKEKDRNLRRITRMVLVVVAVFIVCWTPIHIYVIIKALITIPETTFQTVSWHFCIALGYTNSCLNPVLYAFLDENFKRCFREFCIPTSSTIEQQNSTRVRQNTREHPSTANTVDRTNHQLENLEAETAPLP
Method: The homogenate was centrifuged at 5800×g (10,000 rpm; Beckman L8-70 Ultracentrifuge, Rotor: SW 40) for 20 min at 4 degrees. The upper parenchyma layer was then collected and centrifuged under the same conditions. The upper parenchyma layer was again collected, and 1 Volume of 50 mM Tris-buffer pH 7.4 containing [2×] of protease inhibitor was added to the collected parenchyma. The mixture was homogenized using a motorized pestle. The homogenate was centrifuged at 46,000×g for 15 minutes at 4° C. The supernatant was removed and the pellet re-suspended in 1 Volume Tris-buffer pH 7.4 containing [2×] of protease inhibitor. The re-suspended pellet was incubated at 37° C. for 15 minutes with agitation in a 50 ml conical tube to dissociate endogenous opioids from receptors. After incubation, the homogenate was centrifuged at 46,000×g for 15 minutes at 4° C. The supernatant was again removed and the pellet re-suspended in 1 to 1.5 Volume Tris-buffer pH 7.4 containing [1×] of protease inhibitor. The membrane preparation was aliquoted into 1.5 ml tubes in 1 ml samples and stored at −80° C.
Opioid Receptor binding assay used a μ opioid receptor agonist, ^3H-DAMGO, to bind to opioid receptors present in the rat brain membrane preparation. Displacement studies were done with unlabelled ligands, Dalargin, and Dalargin-FC5. Briefly, diluted reagents were prepared using 50 mM Tris-buffer pH7.4, as follows: • i. […] 500 nM FC5-Dal: 16.67 μl 30 μM FC5-Dal and 1 ml Tris-buffer; • v.
Tris-buffer was added to each well, followed by a range of Dalargin concentrations, followed by ^3H-DAMGO. The reaction mixture was left at RT with gentle orbital shaking for 1.5 hr. A scintillation cocktail was then added and radioactive counts were measured using beta scintillation counter.
Specific activity for ^3H-DAMGO was 56.8 Ci/mmol. Percentage specific bound at each concentration of unlabelled competitor was calculated using the formula: % specific bound=Bound/Total bound*100.

[4] = test system: Immortalized Adult Rat brain endothelial cells (ARBEC); assay: Transport across in vitro blood brain barrier model; details: Cy5.5-labelled, 10 μg/ml added to apical chamber, ARBEC monolayer
Method: FC5 and FC5-Dalargin were labelled by covalent conjugation to Cy5.5 N-hydroxysuccinimide (NHS) ester using methods recommended by the manufacturer (GE Healthcare). Cy5.5 NHS was bound to FC5 through a thioether covalent bond.
Immortalized Adult Rat brain endothelial cells (ARBEC) were used as the in vitro blood brain barrier model. ARBEC (80,000 cells/membrane) were seeded on a 0.5% gelatine-coated Falcon tissue culture inserts (pore size-1 μm; surface area 0.83 cm^2) in 1 ml of growth medium. The bottom chamber of the insert assembly contained 2 ml of growth medium supplemented with the fetal human astrocyte-conditioned medium in a 1:1 (v/v) ratio.
Transport studies were performed 7 days post-seeding. Filter inserts were rinsed with transport buffer (PBS containing 5 mM glucose, 5 mM MgCl2, 10 mM HEPES, 0.05% BSA, pH 7.4) and allowed to equilibrate at 37° C. for 30 minutes. Experiments were initiated by adding 10 μg/ml Cy5.5-labelled FC5-Dalargin or Cy5.5-labelled FC5 to the apical chamber. Aliquots (100 μl) were collected from the opposite chamber at various time intervals (5, 15, 30, 60, 120 minutes) and replaced with fresh buffer. The amount of FC5-Dalargin transported across HCEC monolayers was determined by fluorescence in a fluorescence plate reader.

[5] = 0.86 mg/kg of Dalargin, intra-carotid, 30 min after injection
[6] = 1.72 mg/kg of Dalargin, intra-carotid, 30 min after injection

CN1CC[C@]23c4c5ccc(O)c4O[C@H]2[C@@H](O)C=C[C@H]3[C@H]1C5 [Morphine, morphine]
% of the maximal analgesic effect (observed with 10 mg/kg morphine) ([1]; 3 mg/kg s.c.): approximately 50%
% MPE (30 min) ([1]; 3 mg/kg sc, 30 min after injection): 56%
Tail flick latency ([1]; 10 mg/kg morphine s.c., 30 min after injection, cut-off 10 sec): 10 s
% MPE (30 min) ([1]; 10 mg/kg sc, 30 min after injection): 100%
Effect on CFA-injected paw withdrawal latency ([2]; 10 mg/kg subcutaneous, positive control): prompt increase in CFA-injected paw withdrawal latency to values of the contralateral, non-inflamed paw
Duration of the increase in paw withdrawal latency ([2]; 10 mg/kg subcutaneous, then slowly diminishing over 3 hours): 60 min

Tyr-[D-Ala]-Gly-Phe-Leu-Arg (Y[dA]GFLR) [Dalargin]
% MPE (30 min) [1, 5]: 19%
% MPE (30 min) [1, 6]: 17%
Time of return to basal levels after intra-cerebroventricular injection ([1]; icv): 60 min
Analgesic effect after intra-cerebroventricular injection ([1]; icv): reaching maximal latency of response
Analgesic effect after intra-carotid injection ([1]; intra-carotid, 0.86 and 1.72 mg/kg): No analgesic effect

Dalargin-cysteamide-OH (Y[dA]GFLR; not fully specified (C-terminus))
Time of return to basal levels after intra-cerebroventricular injection ([1]; icv): 60 min
Analgesic effect after intra-cerebroventricular injection ([1]; icv): reaching maximal latency of response
% of maximal effect ([2]; icv, 1.08 μg): 75%
% MPE ([2]; icv, 10.08 μg): 100%
Analgesic effect after intravenous injection [2]: did not increase latency of withdrawal of the inflamed paw
Displacement of 3H-DAMGO (receptor binding competition) [3]: only slightly less potent than Dalargin

FC5-Dalargin: FC5 sdAb conjugated via Sulfo-SMCC cross-linker to Dalargin-cysteamide
% MPE (30 min) [1, 5]: 63%
% MPE (30 min) ([1]; 0.86 mg/kg of Dalargin, intra-carotid, 30 min after injection, listed as FC5-Dal): 63%
% MPE (30 min) [1, 6]: 66%
% MPE (30 min) ([1]; 1.72 mg/kg of Dalargin, intra-carotid, 30 min after injection, listed as FC5-Dal): 66%
Maximal analgesia, % of maximum effect ([1]; icv, 30 min after injection): 40%
Persisting analgesia, % above basal levels ([1]; icv, for up to 90 min): 10-15%
% MPE ([2]; i.v. 7 mg/kg, three injections at 0, 1, 2 h, 45 min-1 hour after the third injection): 100%
Analgesic effect after icv injection ([2]; icv, 74.4 μg): complete analgesia
Duration of analgesia after icv injection ([2]; icv, 74.4 μg): 120 min
Permeability co-efficients (Pe) [4]: 4.17 ×10⁻⁶ cm/s
Displacement of 3H-DAMGO (receptor binding competition) [3]: only slightly less potent than Dalargin

B1: FC5: blood-brain barrier-transmigrating single domain antibody, SEQ ID NO:4, expressed with His5 and c-myc tags (protein)
VHH: EVQLQASGGGLVQAGGSLRLSCAASGFKITHYTMGWFRQAPGKEREFVSRITWGGDNTFYSNSVKGRFTISRDNAKNTVYLQMNSLKPEDTADYYCAAGSTSTATPLRVDYWGKGTQVTVSS
modifications: His5 and c-myc tags; FC5 sdAb
Analgesic effect after intravenous injection [2]: Neither FC5 alone nor EG2-Dalargin construct induced any analgesic effect
Permeability co-efficients (Pe) [4]: 3.25 ×10⁻⁶ cm/s
Displacement of 3H-DAMGO (receptor binding competition) [3]: did not displace
